Laboratory results: US5747235A, “Silver halide light sensitive emulsion layer having enhanced photographic sensitivity” (Eastman Kodak Company, priority 1996, dated 1998)

Columns and labels:
Assay type in all cases: physicochemical
[1] = oxidation potential E2 of radical X by laser flash photolysis; conditions: Table C; by parent XY compound; < = more negative than
Text: In this technique, the compound X-Y is oxidized by an electron transfer reaction initiated by a short laser pulse. The oxidized form of X-Y then undergoes the bond cleavage reaction to give the radical X^.cndot.. X^.cndot. is then allowed to interact with various electron acceptor compounds of known reduction potential. […] The experimental details are set forth more fully below. The oxidation potentials (E2) for radicals X^.cndot. for typical compounds useful in accordance with our invention are given in Table C. Where only limits on potentials could be determined, the following notation is used: <-0.90 V should be read as "more negative than -0.90 V" and >-0.40 V should be read as "less negative than -0.40 V".
(a) Oxidation Potential of Radical X.cndot.
The laser flash photolysis measurements were performed using a nanosecond pulsed excimer (Questek model 2620, 308 nm, ca. 20 ns, ca. 100 mJ) pumped dye laser (Lambda Physik model FL 3002). The laser dye was DPS (commercially available from Exciton Co.) in p-dioxane (410 nm, ca. 20 ns, ca. 10 mJ). The analyzing light source was a pulsed 150W xenon arc lamp (Osram XBO 150/W). The arc lamp power supply was a PRA model 302 and the pulser was a PRA model M-306. The pulser increased the light output by ca. 100 fold, for a time period of ca. 2-3 ms. The analyzing light was focussed through a small aperture (ca. 1.5 mm) in a cell holder designed to hold 1 cm^2 cuvettes. The laser and analyzing beams irradiated the cell from opposite directions and crossed at a narrow angle (ca. 15°). After leaving the cell, the analyzing light was collimated and focussed onto the slit (1 mm, 4 nm bandpass) of an ISA H-20 monochromator. The light was detected using 5 dynodes of a Hamamatsu model R446 photomultiplier. The output of the photomultiplier tube was terminated into 50 ohm, and captured using a Tektronix DSA-602 digital oscilloscope. The entire experiment is controlled from a personal computer.
The experiments were performed either in acetonitrile, or a mixture of 80% acetonitrile and 20% water. The first singlet excited state of a cyanoanthracene (A), which acted as the electron acceptor, was produced using the nanosecond laser pulse at 410 nm. […] Secondary electron transfer then occurred between B^.cndot.+ and the lower oxidation potential electron donor X-Y, to generate X-Y^.cndot.+ in high yield. For the investigations of the oxidation potentials of the radicals X^.cndot., typically the cyanoanthrancene concentration was ca. 2×10^-5 M to 10^-4 M the biphenyl concentration was ca. 0.1M. The concentration of the X-Y donor was ca. 10^-3 M. The rates of the electron transfer reactions are determined by the concentrations of the substrates. The concentrations used ensured that the A^.cndot.- and the X-Y^.cndot.+ were generated within 100 ns of the laser pulse. The radical ions could be observed directly by means of their visible absorption spectra. The kinetics of the photogenerated radical ions were monitored by observation of the changes in optical density at the appropriate wavelengths.
The reduction potential (Ered) of 9,10-dicyanoanthracene (DCA) is -0.91 V. In a typical experiment, DCA is excited and the initial photo-induced electron transfer from the biphenyl (B) to the DCA forms a DCA^.cndot.-, which is observed at its characteristic absorption maximum (λobs =705 nm), within ca. 20 ns of the laser pulse. Rapid secondary electron transfer occurs from X-Y to B^.cndot.+ to generate X-Y^.cndot.+, which fragments to give X^.cndot.. A growth in absorption is then observed at 705 nm with a time constant of ca. 1 microsecond, due to reduction of a second DCA by the X^.cndot.. The absorption signal with the microsecond growth time is equal to the size of the absorption signal formed within 20 ns.
If the oxidation potential of X^.cndot. is not sufficiently negative to reduce DCA, an estimate of its oxidation potential was obtained by using other cyanoanthracenes as acceptors. […]

[2] = oxidation potential E1 by cyclic voltammetry; conditions: Table A; 80%/20% acetonitrile/water, 0.1M lithium perchlorate, 25° C.
Procedure: Oxidation potentials are well known and can be found, for example, in "Encyclopedia of Electrochemistry of the Elements", Organic Section, Volumes XI-XV, A. Bard and H. Lund (Editors) Marcel Dekker Inc., NY. (1984). E1 can be measured by the technique of cyclic voltammetry. In this technique, the electron donating compound is dissolved in a solution of 80%/20% by volume acetonitrile to water containing 0.1M lithium perchlorate. Oxygen is removed from the solution by passing nitrogen gas through the solution for 10 minutes prior to measurement. A glassy carbon disk is used for the working electrode, a platinum wire is used for the counter electrode, and a saturated calomel electrode (SCE) is used for the reference electrode. Measurement is conducted at 25° C. using a potential sweep rate of 0.1 V/sec. The oxidation potential vs. SCE is taken as the peak potential of the cyclic voltammetric wave.

[3] = fragmentation rate constant kfr by laser flash photolysis; conditions: Table B; CH3CN/H2O (4:1)
Text: The kinetics of the bond cleavage or fragmentation reaction can be measured by conventional laser flash photolysis. […] The specific experimental apparatus we used to measure fragmentation rate constants and radical oxidation potentials is described in detail below.
(b) Fragmentation Rate Constant Determination
These absorptions were used to determine the kinetics of the fragmentation reactions of the radical cations of the X-Y. Excitation of 9,10-dicyanoanthracene (DCA) in the presence of biphenyl and the X-Y donor, as described above, results in the formation of the DCA^.cndot.- and the X-Y^.cndot.+. By using a concentration of X-Y of ca. 10^-2 M, the X-Y^.cndot.+ can be formed within ca. 20 ns of the laser pulse. […] The monitoring wavelengths used were somewhat different for the different donors, but were mostly around 470-530 nm. […] Alternatively, when the decay rate of the X-Y^.cndot.+ was less than 10^6 s^-1, the solutions were purged with oxygen.
The experiments measuring the fragmentation rate constants were performed in acetonitrile with the addition of 20% water, so that all of the salts could be easily solubilized. Most experiments were performed at room temperature. […] When this happened, the fragmentation rate constants were measured as a function of temperature, and the rate constant at room temperature determined by extrapolation.

Compound	Oxidation Potentials of Radicals (X*), E2 [1]	Oxidation Potential of X--Y, E1 [2]	kfr, Rate Constants for Decarboxylation of Radical Cations [3]
CCN(CC)c1ccc(C(O)C(=O)O)cc1 (centres unmarked) [Compound 2]	< -0.9 V	0.50 V vs SCE	–
CN(C)c1ccc(C(O)C(=O)O)cc1 (centres unmarked) [Compound 3]	–	–	550000 s⁻¹
CCN(CC)c1ccc(C(C)(O)C(=O)O)cc1 (centres unmarked) [Compound 4]	–	0.49 V vs SCE	–
CN(C)c1ccc(C(C)(O)C(=O)O)cc1 (centres unmarked) [Compound 5]	< -0.9 V	0.51 V vs SCE	–
O=C(O)COc1ccc(N(CC(=O)O)CC(=O)O)cc1 [Compound 9]	–	0.38 V vs SCE	–
O=C(O)CN(CC(=O)O)c1ccc(Cl)cc1 [Compound 12]	–	0.58 V vs SCE	–
CCC(C)c1ccc(N(CC(=O)O)C(C)C(=O)O)cc1 (centres unmarked) [Compound 16]	~ -0.9 V	0.47 V vs SCE	–
CC(C(=O)O)N(CC(=O)O)c1ccc(C=O)cc1 (centres unmarked) [Compound 17]	–	0.74 V vs SCE	–
CC(C(=O)O)N(CC(=O)O)c1ccc(S(=O)(=O)O)cc1 (centres unmarked) [Compound 18]	–	0.70 V vs SCE	–
CCN(CC)S(=O)(=O)c1ccc(N(CC(=O)O)C(C)C(=O)O)cc1 (centres unmarked) [Compound 19]	–	0.68 V vs SCE	–
COc1ccc(N(CC(=O)O)CC(=O)O)cc1OC [Compound 21]	–	0.36 V vs SCE	1000 s⁻¹
O=C(O)COc1ccccc1N(CC(=O)O)CC(=O)O [Compound 22]	–	0.65 V vs SCE	–
COc1ccc(NC(C)C(=O)O)cc1 (centres unmarked) [Compound 23]	–	0.37 V vs SCE	–
CC(Nc1ccccc1)C(=O)O (centres unmarked) [Compound 24]	–	0.52 V vs SCE	–
CC(Nc1ccc(C(=O)O)cc1)C(=O)O (centres unmarked) [Compound 25]	–	0.62 V vs SCE	–
CC(Nc1ccc(Cl)cc1)C(=O)O (centres unmarked) [Compound 26]	–	0.51 V vs SCE	–
CC(Nc1ccc(C(N)=O)cc1)C(=O)O (centres unmarked) [Compound 27]	–	0.62 V vs SCE	–
CCOC(=O)c1ccc(NC(C)C(=O)O)cc1 (centres unmarked) [Compound 28]	–	0.61 V vs SCE	–
O=C(O)CC(Nc1ccccc1)C(=O)O (centres unmarked) [Compound 30]	–	0.60 V vs SCE	–
O=C(O)CC(Nc1ccc(C(=O)O)cc1)C(=O)O (centres unmarked) [Compound 31]	–	0.61 V vs SCE	–
CC(Nc1cccc(C(N)=O)c1)C(=O)O (centres unmarked) [Compound 32]	–	0.58 V vs SCE	–

Compound	Oxidation Potentials of Radicals (X*), E2 [1]	Oxidation Potential of X--Y, E1 [2]	kfr, Rate Constants for Decarboxylation of Radical Cations [3]
CC(C(=O)O)N(C)c1ccc(C(=O)O)cc1 (centres unmarked) [Compound 33]	< -0.9 V	0.54 V vs SCE	–
CCN(c1cccc(C(N)=O)c1)C(C)C(=O)O (centres unmarked) [Compound 34]	–	0.52 V vs SCE	–
CCCCN(c1ccc(C)cc1)C(C)C(=O)O (centres unmarked) [Compound 35]	–	0.34 V vs SCE	–
CCCCN(c1ccccc1)C(C)C(=O)O (centres unmarked) [Compound 37]	–	0.43 V vs SCE	–
CCCCN(c1ccc(C(=O)O)cc1)C(C)C(=O)O (centres unmarked) [Compound 38]	–	0.48 V vs SCE	–
CCCCN(c1ccc(Cl)cc1)C(C)C(=O)O (centres unmarked) [Compound 39]	–	0.40 V vs SCE	–
CCCCN(c1ccc(C)cc1)C(CC(=O)O)C(=O)O (centres unmarked) [Compound 40]	–	0.38 V vs SCE	1.3e+07 s⁻¹
CCCCN(c1ccccc1)C(CC(=O)O)C(=O)O (centres unmarked) [Compound 41]	–	0.48 V vs SCE	–
Cc1ccc(N(CCC(=O)O)C[Si](C)(C)C)cc1 [Compound 42]	~ -0.9 V	0.30 V vs SCE	–
Cn1cc(C(O)C(=O)O)c2ccccc21 (centres unmarked) [Compound 43]	-0.89 V	0.61 V vs SCE	–
CC(C(=O)O)c1cn(C)c2ccccc12 (centres unmarked) [Compound 45]	-0.56 V	0.64 V vs SCE	–
Cn1cc(CC(=O)O)c2ccccc21 [Compound 46]	~ -0.34 V	0.68 V vs SCE	–
CC1CC(C)(C)N(CC(=O)O)c2ccccc21 (centres unmarked) [Compound 47]	~ -0.9 V	–	> 10^7 s^-1
COc1cc(OC)c(C(O)C(=O)O)cc1OC (centres unmarked) [Compound 48]	< -0.9 V	0.70 V vs SCE	–
O=C(O)C(O)c1ccccc1 (centres unmarked) [Compound 49]	-0.75 V	~ 1.2 V vs SCE	–
COc1ccc(C(O)C(=O)O)cc1 (centres unmarked) [Compound 50]	< -0.9 V	~ 1.05 V vs SCE	–
COc1ccc(C(O)C(=O)O)cc1OC (centres unmarked) [Compound 51]	< -0.9 V	0.91 V vs SCE	–
CC(C(=O)O)N(c1ccccc1)c1ccccc1 (centres unmarked) [Compound 58]	–	0.49 V vs SCE	–
CC(C)(Nc1ccccc1)C(=O)O [Compound 59]	–	0.53 V vs SCE	–
Nc1nc(C(O)C(=O)O)cs1 (centres unmarked) [Compound 60]	–	0.80 V vs SCE	–
